row,SMILES,melting point
1,N#Cc1c(-c2cccs2)nn(-c2ccccc2)c1N,165 to 167 °C
2,C[N+](C)([O-])S(=O)(=O)c1ccc2c(c1)N(C1CN3CCC1CC3)c1ccccc1S2=O (configuration not stated),130 °C
3,Cc1nc2cccc(Cl)c2n1-c1ccccc1,103 to 105 °C
4,Cc1cccc2c3c(n(Cc4ccc(F)cc4)c12)CCCC3=O,154 to 155 °C
5,CCc1c(C)sc2[nH]c(=O)c(=O)[nH]c12,> 300 °C
6,O=C1OC(c2ccccc2)=NC1=Cc1c(O)ccc2ccccc12,228 to 229 °C
7,CCOC(=O)CN1C[C@@H](C(N)=O)N(CC(=O)OCC)C[C@@H]1C(N)=O,> 260 °C
8,CONC(=O)Nc1ccc(-c2nc3n(Cc4c(F)cccc4F)cc(C(=O)OC(C)C)c(=O)n3c2CN(C)Cc2ccccc2)cc1,156 to 158 °C
9,COC(=O)C1c2c(C)c(OC(=O)c3ccc([N+](=O)[O-])cc3)c(C)c(C)c2OC1(C)C (configuration not stated),215 to 216 °C
10,CC(CCC=O)C1CC=C2C3=C(CCC21C)C1(C)CCC(=O)C(C)(C)C1CC3 (configuration not stated),96.5 to 97 °C
11,OC[C@H]1C2CCC(C2)[C@@H]1CO,58 °C
12,CCCOc1ccc2[nH]c(-c3cc(C)c(O)c(C)c3)c(C)c2c1,124 °C
13,O=C1CCCC(CNC(=O)c2cc(O)ccc2OCC(F)(F)F)N1 (configuration not stated),156 to 158 °C
14,CN1CCN(Cc2ccc(COc3cccc4c3CN(C3CCC(=O)NC3=O)C4=O)cc2)CC1 (configuration not stated),188 to 190 °C
15,Nc1nc(NCCN2CCC(Nc3nc4ccccc4n3Cc3ccc(F)cc3)CC2)ccc1[N+](=O)[O-],206 °C
16,O=c1c(CCc2nc3ccccc3s2)cc2cccnc2n1-c1cccc([N+](=O)[O-])c1,178 to 179 °C
17,O=c1c(-c2ccc(Cl)cc2)c(CCC2CC2)nc2ccccn12,126 to 127 °C
18,Cc1cc(C)c2c(c1)nc(NC1CCN(CCO)CC1)n2Cc1nc(C)ccc1O,143 °C
19,COCCNc1nccc(Oc2ccc(NC(=O)c3cc(F)cc(N4CCOCC4)c3)c3ccccc23)n1,95 to 97 °C
20,CN(Cc1cc2c3c(c1)c(=O)c(C(=O)NCc1ccc(F)cc1)cn3CC(=O)N2C)C[C@@H](O)c1cccs1,113 to 115 °C
21,CCOC(=O)C(C#N)=Cc1ccc(OCCc2nc(-c3ccccc3Cl)oc2C)cc1,120 to 121 °C
22,CN1C(=O)C(NC(=O)Nc2cccc3ccccc23)N=C(c2ccccc2)c2ccccc21 (configuration not stated),234 to 235 °C
23,CC(C)(C)CC(=O)N[C@H]1CC[C@H](CCN2CCN(c3nccc4c3OCC4)CC2)CC1,193 °C
24,CN1C2CCC1CC(O)(c1ccc(Cl)cc1)C2 (configuration not stated),186 to 187 °C
25,O=C1c2c(oc3ccccc23)-c2ccc(O)c3cccc1c23,374 °C

row,SMILES,melting point
1,CCOc1cccc2cc(C(=O)c3cc(OC)ccc3OC)oc12,55 to 57 °C
2,O=[N+]([O-])c1ccc(-n2nc3c(c2O)-c2ccccc2CC3)nc1,226 to 227 °C
3,COc1cccc(Cc2cc3cccc(-c4cccc(C(=O)Nc5ccc(F)nc5)c4)c3o2)c1,196 to 199 °C
4,CCc1nnc(-c2ccc(-c3ccc(C(=O)N4CCCc5cc6c(cc54)C4(CCN(C)CC4)CO6)cc3)c(C)c2)o1,241 to 243 °C
5,O=C(NCCc1ccc(O)c(O)c1)C12CC3CC(CC(C3)C1)C2,198 to 200 °C
6,CCSCCOC(=O)C(=O)Nc1nc(-c2ccccc2)cs1,148 to 149 °C
7,CC(=O)c1cccc(NC(=O)CCCC(=O)Nc2cccc(C(C)=O)c2)c1,174 to 175 °C
8,Cc1cccc(C)c1NC(=O)NCCCc1cc(-c2ccccc2)n(-c2ccc(S(N)(=O)=O)cc2)n1,138 to 141 °C
9,CCC(O)(c1ccsc1)c1oc(C)nc1C (configuration not stated),81 to 83 °C
10,Cc1cccc(-n2c(-c3cc(-c4ccc(S(C)(=O)=O)cc4)c(N4CCOCC4)s3)nc3ccccc3c2=O)c1,208 to 210 °C
11,O=c1[nH]c(=O)n(C2CC(O)C(CO)O2)cc1C#CI (configuration not stated),135 to 137 °C
12,COc1cc(C(=O)c2cnc3ccccc3c2)ccc1OCc1ccccc1,110 to 111 °C
13,C=CCSc1ccc(Oc2ccccc2)nn1,71 to 73 °C
14,O=C(Nc1ccc2[nH]c(C(F)(F)F)nc2c1)NC12CC3CC(CC(C3)C1)C2,189 to 192 °C
15,COc1cc2c(cc1Br)[C@@H](O)[C@H](Br)C(C)(C)O2 (relative stereo),58 to 59 °C
16,C#CCOc1ccc2cnn(C[C@H](C)NC(=O)OCc3ccccc3)c2c1,104 to 106 °C
17,CC1(C)CC(=S)Nc2ccc(-c3cccc(Cl)c3)cc21,197 to 198 °C
18,CCCCc1cccc2c3c([nH]c12)C(CC)(CC(=O)O)CCC3 (configuration not stated),131 to 134 °C
19,Cc1csc(-c2cc(=O)n(C)c3ccc(C(=O)c4ccc(Cl)cc4)cc23)n1,236 °C
20,O=C(CNC(=O)c1ccccc1)c1ccsc1,118 to 119 °C
21,"CN1CCC(O)(c2cccc(F)c2F)C1 (single isomer, unassigned; (-))",131 to 132 °C
22,Cc1ccc(CN2CCOCC2)cn1,51 to 52 °C
23,COC(=O)c1cc2cc([N+](=O)[O-])ccc2o1,168 °C
24,COc1ccccc1N1CCN(CCCNc2ncc3cc(-c4c(Cl)cccc4Cl)c(=O)n(C)c3n2)CC1,187 to 188 °C
25,COC(=O)c1ccc(OC)c2c1OCCO2,84 °C

row,SMILES,melting point
1,N=C(Nc1ccc(Cl)cc1)Nc1ncccc1OCc1ccccc1Cl,162 to 163 °C
2,CCc1ccc(S(=O)(=O)NCc2ccccc2-c2ccccc2C(=O)NCCc2ccccc2)cc1,163 °C
3,O=C1CN2C(=O)C(c3ccccc3)(c3ccccc3)c3cccc(c32)N1,235 to 255 °C
4,O=c1[nH]c2cc(Cl)ccc2n1C1CCN(CCCC(c2ccc(F)cc2)c2ccc(F)cc2)CC1,186 °C
5,COc1ccccc1NC1=NN(S(=O)(=O)c2ccc(C)cc2)CC1,176 to 179 °C
6,COC(=O)[C@@H](CCCc1ccc(OCc2nc(-c3ccco3)oc2C)c(OC)c1)OC(N)=O,110 to 111 °C
7,CS(=O)(=O)NC1CCC(NC(=O)c2ccc(F)cc2)CC1 (configuration not stated),269 to 270 °C
8,COc1ccc(C2=NN(C3CCN(CC(N)=O)CC3)C(=O)CC2)cc1OC,180 to 182 °C
9,O=C1C(c2ccccc2)N(c2ccc(Oc3ccccc3)cc2)C(=S)N1c1ccccc1 (configuration not stated),100 °C
10,CCN(CC)c1ccc2nc3c4ccccc4c(=Nc4cc(C)on4)cc-3oc2c1,195 to 196 °C
11,COC(=O)CCC(C(=O)C=Cc1ccc(OC(C)=O)c(OC(F)(F)F)c1)C(=O)C=Cc1ccc(OC(C)=O)c(OC(F)(F)F)c1 (configuration not stated),149 to 150 °C
12,CCNc1ccc(-c2nnsc2-c2ccc(NCC)cc2)cc1,96.5 to 98.5 °C
13,O=c1cnc2cc(C(c3cccc(Cl)c3)n3ccnc3)ccc2[nH]1 (configuration not stated),253 °C
14,O=C1OCc2c(c3cc(-c4ccc(OC(F)(F)F)cc4)ccc3n2Cc2ccccc2)C1=O,239 to 240 °C
15,CC(=O)N1CCc2ccccc2C1Cc1ccccc1N (configuration not stated),142 to 148 °C
16,NC(=O)CNC(=O)c1cccc(-c2ccc3c(c2)N(c2ccc(Cl)cc2Cl)CC3)c1,184 to 186 °C
17,COc1ccc(Cn2c(=O)c3ccccc3n(CCCCBr)c2=O)cc1,124 to 125 °C
18,N#Cc1ccc(C(=O)n2ccnc2)cc1,152 to 154 °C
19,CN1C(C)(C)CN(CCO)C(=O)C1(C)C,77 to 80 °C
20,CC(=O)Oc1c(C)c(C)c2c(c1C)CC(C)(CO)O2 (configuration not stated),98 to 99 °C
21,CCCc1sc(-c2ccccc2)nc1OC(=O)Nc1ccccc1,104 to 105 °C
22,Cc1[nH]c(=O)c(C#N)c2c1CC(C)CC2 (configuration not stated),> 290 °C
23,COc1ccc2nc(Nc3ccc(F)cc3C)nc(N(C)c3ccccc3)c2c1,248 to 250 °C
24,CC1(C)CCC(C)(C)c2cc(CC#Cc3ccc(C(=O)O)c(O)c3)c(O)cc21,216 to 217 °C
25,CN(C)S(=O)(=O)n1c(C(=S)NC(=O)NS(=O)(=O)c2ccccc2Cl)nc2cc(Cl)c(Cl)cc21,131 to 132 °C

row,SMILES,melting point
1,c1ccc2c(c1)CCn1cnnc1C2,191 °C
2,ON=C(c1ccc(F)cc1)c1ccc(O)c(Cl)c1Cl,150 to 156 °C
3,CCn1cc(-c2c(-c3ccccc3)nn3ccncc23)ccc1=O,192 to 193 °C
4,CN(C)c1ccc(C(=O)N2CCC(c3[nH]nc4c3C(=O)c3c(NC(=O)NN5CCOCC5)cccc3-4)CC2)cc1,189 to 191 °C
5,O=C(O)C(CC(=O)N1CCOCC1)Cc1cccc2ccccc12 (configuration not stated),62 to 66 °C
6,CCCC(=O)C1=C(O)CC2(CCC(C)CC2)OC1=O (configuration not stated),60 to 63 °C
7,O=c1cc(NCCN2CCN(c3cc(Cl)cc4c3OCCO4)CC2)cn[nH]1,115 to 117 °C
8,CC(C)Oc1ccccc1-c1cc(=O)c2cc(-c3nnn[nH]3)ccc2o1,293 to 295 °C
9,Cn1nc(-c2ccccc2C(F)(F)F)nc1-c1ccccc1C(F)(F)F,108 to 111 °C
10,COC(=O)CCCc1cc2cc(Cl)ccc2n1S(=O)(=O)c1ccc(N)c([N+](=O)[O-])c1,157 °C
11,Cc1ccc(-c2c(C(=O)NCc3cc(C(F)(F)F)cc(C(F)(F)F)c3)n(C[C@H](C)CO)c(=O)c3ncccc23)cc1,123 to 125 °C
12,O=C(Cn1nnnc1-c1ccc2ccccc2c1)OCCO,64 to 66 °C
13,CN1C(=O)CC(c2ccc(O)cc2)C1C(O)c1ccc(-c2ccccc2)s1 (configuration not stated),248 to 249 °C
14,c1ccc(C2CCNC3=NCCCN32)cc1 (configuration not stated),177 to 179 °C
15,CCOCN1C(C)=C(C(=O)OC)C(c2cccc([N+](=O)[O-])c2)C(C(=O)OCCBr)=C1C (configuration not stated),72.5 to 74 °C
16,Fc1cccc(CN2CCN=C2S)c1,186 to 188 °C
17,CCOC(=O)C1CCc2c(sc3nc(CCl)c(Cl)c(-c4ccc(OC)cc4)c23)C1 (configuration not stated),113 to 114 °C
18,COC(=O)Cc1ccc(OC(=S)N(C)C)cc1F,113 to 114 °C
19,O=C1NCCCN1N=Cc1ccccc1,190 °C
20,O=C1CN(c2ccccc2)C1=O,115 to 117 °C
21,CNC(=O)Nc1snc(N(C)C)c1C#N,240 to 241 °C
22,O=C1c2ccccc2C(=O)N1CCCS(=O)(=O)c1ccc(Cl)cc1,188 °C
